The values that follow come from patent US10364240B2, “Aryl sulfonamides” (ChemoCentryx, Inc., priority 2002, dated 2019).

By IC50 is commonly meant the concentration at which inhibition is half-maximal.

For one experiment, the target named is T1, CCR9 (Homo sapiens, UniProt P51686).
T1 construct: CCR9-expressing cells (such as a T cell line MOLT-4 cells)
T1 sequence (P51686 1-369): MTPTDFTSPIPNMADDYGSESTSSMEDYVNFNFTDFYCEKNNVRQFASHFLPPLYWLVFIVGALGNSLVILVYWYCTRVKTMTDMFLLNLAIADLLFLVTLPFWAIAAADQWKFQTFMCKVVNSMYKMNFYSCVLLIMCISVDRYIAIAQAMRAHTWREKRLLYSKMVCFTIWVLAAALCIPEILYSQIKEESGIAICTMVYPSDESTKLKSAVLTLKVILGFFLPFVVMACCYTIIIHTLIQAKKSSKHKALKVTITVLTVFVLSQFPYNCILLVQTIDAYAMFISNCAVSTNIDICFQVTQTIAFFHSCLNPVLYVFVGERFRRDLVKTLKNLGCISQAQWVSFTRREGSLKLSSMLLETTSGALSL
In words: chemotaxis (conventional migration) assay and/or calcium mobilization (calcium flux) assay. Conditions: either or both of the chemotaxis assay and calcium mobilization assays; MOLT-4 cells, TECK. Format: cell-based. As for the experimental part: MOLT-4 cells were obtained from the American Type Culture Collection (Manassas, Va.) and cultured in RPMI tissue culture medium supplemented with 10% fetal calf serum (FCS) in a humidified 5% CO2 incubator at 37° C. Recombinant human chemokine protein TECK was obtained from R&D Systems (Minneapolis, Minn.). ChemoTX® chemotaxis microchambers were purchased from Neuro Probe (Gaithersburg, Md.). CyQUANT® cell proliferation kits were purchased from Molecular Probes (Eugene, Oreg.). Calcium indicator dye Fluo-4 AM was purchased from Molecular Devices (Mountain View, Calif.).
Conventional migration assay was used to determine the efficacy of potential receptor antagonists in blocking migration mediated through CCR9. This assay was routinely performed using the ChemoTX® microchamber system with a 5-μm pore-sized polycarbonate membrane. To begin such an assay, MOLT-4 cells were harvested by centrifugation of cell suspension at 1000 PRM on a GS-6R Beckman centrifuge. The cell pellet was resuspended in chemotaxis buffer (HBSS with 0.1% BSA) at 5×10^6 cells/mL. Test compounds at desired concentrations were prepared from 10 mM stock solutions by serial dilutions in chemotaxis buffer. An equal volume of cells and compounds were mixed and incubated at room temperature for 15 minutes. Afterwards, 20 μL of the mixture was transferred onto the porus membrane of a migration microchamber, with 29 μL of 50 nM chemokine TECK protein placed at the lower chamber. Following a 150-minute incubation at 37° C., during which cells migrated against the chemokine gradient, the assay was terminated by removing the cell drops from atop the filter. To quantify cells migrated across the membrane, 5 μL of 7× CyQUANT® solution was added to each well in the lower chamber, and the fluorescence signal measured on a Spectrafluor Plus fluorescence plate reader (TECAN, Durham, N.C.). The degree of inhibition was determined by comparing migration signals betweeen compound-treated and untreated cells. IC50 calculation was further performed by non-linear squares regression analysis using Graphpad Prism (Graphpad Software, San Diego, Calif.).
Calcium flux assay measures an increase in intracellular calcium following ligand-induced receptor activation. In the screen of CCR9 antagonists, it was used as a secondary assay carried out on a FLIPR® machine (Molecular Devices, Mountain View, Calif.). To begin an assay, MOLT-4 cells were harvested by centrifugation of cell suspension, and resuspended to 1.5×10^6 cells/mL in HBSS (with 1% fetal calf serum). Cells were then labeled with a calcium indicator dye Fluo-4 AM for 45 minutes at 37° C. with gentle shaking. Following incubation, cells were pelletted, washed once with HBSS and resuspended in the same buffer at a density of 1.6×10^6 cells/mL. One hundred microliters of labeled cells were mixed with 10 μL of test compound at the appropriate concentrations on an assay plate. […] The degree of inhibition was determined by comparing calcium signals between compound-treated and untreated cells. IC50 calculations were further performed by non-linear squares regression analysis using Graphpad Prism (Graphpad Software, San Diego, Calif.).
In general terms: Calcium flux is commonly read through the fluorescence of an indicator in the cells.

A further experiment relates to MDR1a-knockout mice. In words: MDR1a-knockout mice colitis model, prophylactic administration. The format is in vivo. Conditions: female mice, 50 mg/kg twice a day subcutaneous, 14 weeks from age 10 weeks. As for the experimental part:
The MDR1a-knockout mice, which lack the P-glycoprotein gene, spontaneously develop colitis under specific pathogen-free condition. The pathology in these animals has been characterized as Th1-type T cell-mediated inflammation similar to ulcerative colitis in humans. Disease normally begins to develop at around 8-10 weeks after birth. However the ages at which disease emerges and the ultimate penetrance level often vary considerably among different animal facilities.
[drawing 328] was evaluated by prophylactic administration for its ability to delay disease onset. Female mice (n=34) were dosed with 50 mg/kg twice a day by subcutaneous injections for 14 consecutive weeks starting at age 10 weeks. […] Moreover, the number of mice developing diarrhea was also lower among compound-treated mice (17%), compared to mice receiving vehicle alone (24%)(FIG. 1).

On to `CC(C)(c1ccc(S(=O)(=O)Nc2cc(F)c(F)cc2C(=O)c2cccnc2)cc1)c1ncco1`, for which the IC50 at CCR9 was < 1000 nM. Same read-out and setting: in the case of `O=C(c1ccncc1)c1cc(Br)ccc1NS(=O)(=O)c1ccc(OC(F)(F)F)cc1` it was < 1000 nM; in that of `COc1c(Cl)ccc(NS(=O)(=O)c2ccc(C(C)(C)C)cc2)c1C(=O)c1ccncc1` [drawing 520], > 1000 nM; in that of `CC(C)(C)c1ccc(S(=O)(=O)Nc2ccc(Cl)cc2C(=O)c2cnccn2)cc1`, < 1000 nM. Same read-out and setting: in the case of `C[C@@H]1CC(c2ccc(S(=O)(=O)Nc3ccc(Cl)cc3C(=O)c3cccnc3)cc2)C[C@H](C)O1` (stereo partly drawn) it was < 1000 nM. Same read-out and setting: the value for `COC(=O)CCc1ccc(S(=O)(=O)Nc2ccc(Cl)cc2C(=O)c2cccnc2C)cc1` was < 1000 nM; that for `CSc1cc(C(=O)c2cc(Cl)ccc2NS(=O)(=O)c2ccc(C(C)(C)C)cc2)ccn1` was < 1000 nM. As to `CS(=O)(=O)c1ccc(S(=O)(=O)Nc2ccc(Cl)cc2C(=O)c2cccnc2)cc1`, on CCR9, the IC50 is > 1000 nM. Same read-out and setting: in the case of `Cc1ccc(C(=O)c2cc(Cl)ccc2NS(=O)(=O)c2ccc(C3C[C@@H](C)O[C@@H](C)C3)cc2)cn1` (stereo partly drawn) it was < 1000 nM; in that of `CS(=O)(=O)c1ccc(S(=O)(=O)Nc2ccc(Br)cc2C(=O)c2ccncc2)cc1`, < 1000 nM; in that of `Cc1nc(C)c(-c2ccc(S(=O)(=O)Nc3ccc(Cl)cc3C(=O)c3ccncc3)cc2)o1`, < 1000 nM.

In the case of `O=C(c1ccncc1)c1cc(Cl)ccc1NS(=O)(=O)c1ccc(Br)cc1`, the IC50 on CCR9 is < 1000 nM. On the same count and under the same terms, in the case of `CC(C)(CO)c1ccc(S(=O)(=O)Nc2ccc(Cl)cc2C(=O)c2cc[n+]([O-])cc2)cc1` it was < 1000 nM. For the molecule `COc1ccc(S(=O)(=O)Nc2ccc(Cl)cc2C(=O)c2ccccn2)cc1`, the IC50 on CCR9 is > 1000 nM. On the same count and under the same terms, in the case of `CC(=O)OCC(C)(C)c1ccc(S(=O)(=O)Nc2ccc(Cl)cc2C(=O)c2ccncc2)cc1` it was < 1000 nM. With `CC(C)(C)c1ccc(S(=O)(=O)Nc2ccc(Cl)cc2C(=O)c2cccc[n+]2[O-])cc1`, on CCR9, the IC50 was < 1000 nM. The same measure, in the same setting: in the case of `O=C(c1cccnc1)c1cc(Cl)ccc1NS(=O)(=O)c1ccc(-c2nccs2)cc1` it was > 1000 nM.

As to `CC1COC(C)(c2ccc(S(=O)(=O)Nc3ccc(Cl)cc3C(=O)c3ccncc3)cc2)O1` (stereo not drawn), the IC50 on CCR9 is < 1000 nM. Same read-out and setting: the value for `Cc1ccc(C(=O)c2cc(Cl)ccc2NS(=O)(=O)c2ccc(OC(C)C)cc2)c[n+]1[O-]` was < 1000 nM; that for `Cc1ccc(C(=O)c2cc(Cl)ccc2NS(=O)(=O)c2ccc(S(C)(=O)=O)cc2)cn1` was < 1000 nM; that for `Cc1c(C(=O)c2cc(Cl)ccc2NS(=O)(=O)c2ccc(OC(C)C)cc2)ccc[n+]1[O-]` was < 1000 nM.

Turning to `Cc1cc(C(=O)c2cc(Cl)ccc2NS(=O)(=O)c2ccc(S(C)(=O)=O)cc2)ccn1`, on CCR9, the half-inhibitory concentration (IC50) is > 1000 nM.

`COc1cc(C(=O)c2cc(Cl)ccc2NS(=O)(=O)c2ccc(C(C)(C)C)cc2)ccn1`: on CCR9, the IC50 was < 1000 nM.

For the molecule `O=C(c1cccnc1)c1cc(Cl)ccc1NS(=O)(=O)c1ccc(-c2cocn2)cc1`, on CCR9, the IC50 was < 1000 nM.

For the molecule `Cc1c(C(=O)c2cc(Cl)ccc2NS(=O)(=O)c2ccc(OC(F)(F)F)cc2)ccc[n+]1[O-]`, the 50% inhibitory concentration (IC50) at CCR9 is < 1000 nM. On the same count and under the same terms, the value for `CC(C)(c1ccc(S(=O)(=O)Nc2ccc(Cl)cc2C(=O)c2ccccn2)cc1)c1ncco1` was < 1000 nM; that for `Cc1ccc(S(=O)(=O)Nc2ccc(Cl)cc2C(=O)c2ccncc2)cc1` was < 1000 nM; that for `COC(=O)CCc1ccc(S(=O)(=O)Nc2ccc(Cl)cc2C(=O)c2ccc(C)nc2)cc1` was < 1000 nM. On the same count and under the same terms, the value for `COc1c(Cl)ccc(NS(=O)(=O)c2ccc(C(C)(C)C)cc2)c1C(=O)c1ccncc1` [drawing 475] was < 1000 nM; that for `Cc1cc(C(=O)c2cc(Cl)ccc2NS(=O)(=O)c2ccc(-c3ncco3)cc2)ccn1` was < 1000 nM. Same read-out and setting: the value for `O=C(c1ccncc1)c1cc(Cl)ccc1NS(=O)(=O)c1ccc2c(c1)CNCC2` was < 1000 nM.

As for `CC(C)(C)c1ccc(S(=O)(=O)Nc2ccc(Cl)cc2C(=O)c2ccncc2)cc1`, in the experiment with MDR1a-knockout mice, the IBD-associated growth retardation entry was “prevented IBD-associated growth retardation”. For the same molecule, the “number of mice developing diarrhea” value in the experiment on MDR1a-knockout mice (vehicle 24%) is reported as 17%. As to `O=C(c1ncccn1)c1cc(Cl)ccc1NS(=O)(=O)c1ccc(-c2cnco2)cc1`, the IC50 at CCR9 is < 1000 nM. On the same count and under the same terms, in the case of `CC(C)(C)c1ccc(S(=O)(=O)Nc2ccc(Cl)cc2C(=O)c2ccc(S(C)(=O)=O)nc2)cc1` it was < 1000 nM; in that of `COC(=O)CCc1ccc(S(=O)(=O)Nc2ccc(Cl)cc2C(=O)c2ccnc(C)c2)cc1`, > 1000 nM. The same measure, in the same setting: in the case of `C[C@@H]1CN(c2ccc(S(=O)(=O)Nc3ccc(Cl)cc3C(=O)c3cccnc3)cc2F)C[C@H](C)O1` it was < 1000 nM; in that of `C[C@H]1OC(C)(c2ccc(S(=O)(=O)Nc3ccc(Cl)cc3C(=O)c3ccncc3)cc2)O[C@@H]1C`, > 1000 nM. `O=C(c1cc[n+]([O-])cc1)c1cc(Cl)ccc1NS(=O)(=O)c1ccc(-c2cnco2)cc1`: the IC50 on CCR9 was < 1000 nM. Take `CC1(c2ccc(S(=O)(=O)Nc3ccc(Cl)cc3C(=O)c3cc[nH]n3)cc2)CCOCC1`: at CCR9, the 50% inhibitory concentration (IC50) was < 1000 nM. Still for that read-out and setting: the value for `Cc1ccc(C(=O)c2cc(Cl)ccc2NS(=O)(=O)c2ccc(OC(F)(F)F)cc2)c[n+]1[O-]` was < 1000 nM. Still for that read-out and setting: the value for `CC(C)(C)c1ccc(S(=O)(=O)Nc2ccc(Cl)cc2C(=O)c2ncccn2)cc1` was < 1000 nM; that for `CC(C)(C)c1ccc(S(=O)(=O)Nc2c(Cl)cccc2C(=O)c2ccncc2)cc1` was < 1000 nM. Same read-out and setting: in the case of `O=C(c1cccnc1)c1cc(Cl)ccc1NS(=O)(=O)c1ccc(-c2cnco2)cc1` it was < 1000 nM; in that of `CCc1ccc(S(=O)(=O)Nc2ccc(Br)cc2C(=O)c2ccncc2)cc1`, < 1000 nM.
